Data published in patent publication EP4744648A1, “LIPOPEPTIDE-CONTAINING FAT-DISSOLVING PRODUCT, AND PREPARATION METHOD THEREFOR AND USE THEREOF” (Bloomage Biotechnology Corporation Limited, priority 2023, dated 2024).
Where two headings read alike, the source gives them in different places.

Columns and labels:
[1] = Surface tension at serial dilutions (CMC value determination), automatic interfacial tensiometer; assay type: physicochemical
Procedure: A 0.1% surfactin HXRZ solution and a sodium deoxycholate solution were separately prepared using purified water, followed by serial dilution to obtain different gradient concentrations. The surface tensions at different concentrations were determined respectively via a JZ-200A automatic interfacial tensiometer. Table 1 CMC value determination results

[2] = system: Mouse adipocyte cell line 3T3-F442A; test: In vitro cytotoxicity test: relative growth rate of cells by CCK-8; assay type: cell-based; conditions: for relative growth rate: Example 8, X±SD
Procedure: Mouse adipocyte cell line 3T3-F442A in the logarithmic growth phase was seeded into a 96-well plate at a density of 1×10^5 cells/mL, with 100 µL per well. The culture medium consisted of a basal culture medium supplemented with 10% fetal bovine serum. The seeded cells were incubated conventionally in a carbon dioxide incubator at 37°C and 5% CO2 for 24 h.
The solution was freshly prepared before use.
After routine incubation for 24 h, the old culture medium was discarded, and then 100 µL of sample solution was added to replace it in the experimental group. An equal volume of serum-free culture medium was added to the normal control group. Each concentration was set up with at least three replicate wells.
After another incubation for 24 h, the relative growth rate of cells was detected by CCK-8. The culture medium was discarded, 100 µL of CCK-8 diluted 10-fold with the serum-free medium was added to each well. The plate was incubated in a cell incubator for another 2 h. The absorbance was determined using a microplate reader at a wavelength of 450 nm. The relative growth rate (RGR) is a ratio of the absorbance of the experimental group to the absorbance of the normal control group.
3T3-F442A mouse adipocytes in the logarithmic growth phase were seeded into a 96-well plate at a density of 1 × 10^5 cells/mL, with 100 µL per well. After incubation for 24 h, the culture medium was replaced with 100 µL of culture medium containing different concentrations of samples. An equal volume of serum-free culture medium was added to the blank control group, and the incubation was continued for another 24 h. The relative growth rate of cells was determined by CCK-8. The blank control was set as 100%, the relative growth rate and half inhibitory concentration of each group were calculated.

[3] = system: transgenic obese (ob/ob) mice; conditions: for degradation of adipose tissue (H-E sections, FIG. 6): Example 5, 200 µL, one mouse
Procedure: 6-week-old transgenic obese (ob/ob) mice were used as the animal model. Different drugs were injected into the adipose pads of the left buttock. The mice were totally divided into three groups with 7-10 mice per group, as specified below. • 1) Negative control group: injected with 200 µL of sterile normal saline; • 2) 1% sodium deoxycholate group: injected with 200 µL of sterile normal saline solution containing 1% sodium deoxycholate; • 3) 0.1% surfactin HXRZ group: injected with 200 µL of sterile normal saline solution containing 0.1% surfactin HXRZ.
The day of the first administration was defined as Day 1 of the experiment. Additional administrations were performed on Day 3 and Day 5, respectively. The general condition and administration sites of the mice were observed regularly throughout the experiment. On Day 21 of the experiment, the mice were sacrificed and dissected. The adipose tissue of the left buttock was isolated, fixed immediately in adipose tissue fixative, and then embedded in paraffin. The adipose tissue was stained by hematoxylin and eosin staining for pathological examination, followed by observation and analysis under an optical microscope.
Specifically, 6-week-old transgenic obese (ob/ob) mice were used as the animal model, with one mouse per group. 200 µL each of 0.5% and 1% surfactin HXRZ normal saline solutions (test samples) were injected into the adipose pads of the left buttock, respectively. The day of the first administration was defined as Day 1 of the experiment. Additional administrations were performed on Day 3 and Day 5, respectively. The general condition and administration sites of the mice were observed regularly throughout the experiment. On Day 21 of the experiment, the mice were sacrificed and dissected. The adipose tissue of the left buttock of the mice was isolated, fixed immediately in adipose tissue fixative, and then embedded in paraffin. The adipose tissue was stained by hematoxylin and eosin staining for pathological examination, followed by observation and analysis under an optical microscope.

[4] = system: Kunming mice
Procedure: 6-week-old Kunming mice (weighing 20-30 g) were used as the model. A total of 200 µL of different drugs was injected subcutaneously at multiple sites with multiple needles into the left inguinal region of each mouse. The experimental groups were set as follows: • 1) Negative control group (n = 3): 200 µL of sterile normal saline; • 2) 1% sodium deoxycholate group (n = 3): 200 µL of 1% sodium deoxycholate normal saline solution; • 3) 2% sodium deoxycholate group (n = 3): 200 µL of 2% sodium deoxycholate normal saline solution; • 4) 0.5% surfactin HXRZ group (n = 3): 200 µL of 0.5% surfactin HXRZ normal saline solution; • 5) 1% surfactin HXRZ group (n = 3): 200 µL of 1% surfactin HXRZ normal saline solution; • 6) 2% surfactin HXRZ group (n = 3): 200 µL of 2% surfactin HXRZ normal saline solution;
Administration was performed once every 7 days. Ulceration at the administration site of each mouse was observed throughout the administration period. On day 21 of the experiment, all mice were sacrificed and dissected.

[5] = system: Kunming mice; conditions: for Adipocyte density (n/mm^2): day 42, M±SEM
Procedure: In this example, 6-week-old Kunming mice (20-30 g) were used as the model. A total of 200 µL of different drugs was injected subcutaneously at multiple sites with multiple needles into the left inguinal region of each mouse. The experimental groups were set as follows. • 1) Negative control group (n = 9): 200 µL of sterile normal saline; • 2) Sodium deoxycholate group (n = 9): 200 µL of 1% sodium deoxycholate sterile normal saline solution; and • 3) Surfactin HXRZ group (n = 9): 200 µL of 1% surfactin HXRZ sterile normal saline solution.
On day 42 of the experiment, the mice were sacrificed and dissected. The left inguinal adipose tissue was harvested, fixed immediately in adipose tissue fixative and then embedded in paraffin. […] The adipocyte density was then calculated.
Statistical analysis was performed by using ulceration as an indicator of severe local inflammation and subcutaneous nodules and induration as indicators of mild local inflammation.

surfactin [Surfactin HXRZ] gave a Surface tension value ([1]; solution concentration 0.00078125 % in purified water) of 39.08 mN/m, a Surface tension value ([1]; solution concentration 0.0015625 % in purified water) of 38.38 mN/m and a Surface tension value ([1]; solution concentration 0.003125 % in purified water) of 37.64 mN/m. For the same substance, the Surface tension value ([1]; solution concentration 0.00625 % in purified water) was 37.16 mN/m, the Surface tension value ([1]; solution concentration 0.0125 % in purified water) was 36.28 mN/m and the Surface tension value ([1]; solution concentration 0.025 % in purified water) was 35.64 mN/m. For the same substance, the Surface tension value ([1]; solution concentration 0.05 % in purified water) was 33.43 mN/m, the Surface tension value ([1]; solution concentration 0.05 % in purified water, listed as surfactin HXRZ) was 33 mN/m and the Surface tension value ([1]; solution concentration 0.1 % in purified water) was 33.69 mN/m. For the same substance, the “treatment time at which adipocytes were completely lysed” value ([2]; 0.08 mg/mL) was 24 h, the “cell morphology of adipocytes (inverted microscope, FIG. 4)” value ([2]; 0.08 mg/mL, 24 h) was “nearly all cells died” and the “half maximal inhibitory concentrations IC50” value ([2]; 3T3-F442A adipocytes, 24 h, calculated from Table 2 curves) was 27.1 µg/mL. For the same substance, the “Relative growth rate (%)” value ([2]; Example 2, 0.005 mg/mL, 24 h, 3T3-F442A) was 101.2±15.71%, the “Relative growth rate (%)” value ([2]; Example 2, 0.01 mg/mL, 24 h, 3T3-F442A) was 90.23±4.30% and the “Relative growth rate (%)” value ([2]; Example 2, 0.02 mg/mL, 24 h, 3T3-F442A) was 67.56±3.81%. For the same substance, the “Relative growth rate (%)” value ([2]; Example 2, 0.04 mg/mL, 24 h, 3T3-F442A) was 19.34±1.43%, the “Relative growth rate (%)” value ([2]; Example 2, 0.08 mg/mL, 24 h, 3T3-F442A) was 10.74±0.51% and the “Relative growth rate (%)” value ([2]; Example 3, 0.02 mg/mL, 0.5 h) was 75.21±4.86%. The “Relative growth rate (%)” value ([2]; Example 3, 0.02 mg/mL, 4 h) was 61.07±5.11%, the “Relative growth rate (%)” value ([2]; Example 3, 0.02 mg/mL, 24 h) was 67.56±0.09% and the “Relative growth rate (%)” value ([2]; Example 3, 0.04 mg/mL, 0.5 h) was 59.48±3.47%. The “Relative growth rate (%)” value ([2]; Example 3, 0.04 mg/mL, 4 h) was 37.95±1.99%, the “Relative growth rate (%)” value ([2]; Example 3, 0.04 mg/mL, 24 h) was 19.34±0.03% and the “Relative growth rate (%)” value ([2]; Example 3, 0.08 mg/mL, 0.5 h) was 32.81±6.73%. For the same substance, the “Relative growth rate (%)” value ([2]; Example 3, 0.08 mg/mL, 4 h) was 24.38±3.37%, the “Relative growth rate (%)” value ([2]; Example 3, 0.08 mg/mL, 24 h) was 10.74±0.01% and the relative growth rate ([2]; 0.005 mg/mL, 24 h, 3T3-F442A) was 103.67±1.59 b, c %. The relative growth rate ([2]; 0.01 mg/mL, 24 h, 3T3-F442A) was 67.49±5.46 a, b, c %, the relative growth rate ([2]; 0.02 mg/mL, 24 h, 3T3-F442A) was 20.76±5.32 a, b, c % and the relative growth rate ([2]; 0.04 mg/mL, 24 h, 3T3-F442A) was 9.99±0.38 b %. For the same substance, the relative growth rate ([2]; 0.08 mg/mL, 24 h, 3T3-F442A) was 9.01±0.06 b, c %, the “degradation of adipose tissue at the administration sites (H-E sections, FIG. 5)” value ([3]; Example 4, 0.1 %, 200 µL in normal saline, left buttock, Days 1, 3, 5, Day 21) was “induced the degradation of adipose tissue at the administration sites” and the “degradation of adipose tissue (H-E sections, FIG. 6)” value ([3]; 0.5 %, left buttock, Days 1, 3, 5, Day 21) was “induced the degradation of adipose tissue in mice”. The “degradation of adipose tissue (H-E sections, FIG. 6)” value ([3]; 1 %, left buttock, Days 1, 3, 5, Day 21) was “induced the degradation of adipose tissue in mice”, the “induration / ulceration at the administration sites” value ([3]; mouse, in vivo) was “No such phenomena were observed” and the “degradation of inguinal adipose tissue at the administration sites (dissection, FIG. 9)” value ([4]; 0.5 %, treated side vs untreated side) was “a certain degree of degradation”. The “degree of ulceration at the administration sites compared with sodium deoxycholate” value ([4]; mouse, in vivo) was “milder than that in the 2% sodium deoxycholate group”, the “degree of ulceration compared with sodium deoxycholate” value ([4]; mouse, in vivo) was “milder than that in the 1% sodium deoxycholate group” and the healing of ulceration ([4]; mouse, in vivo) was “healed completely”. For the same substance, the healing of ulcers ([4]; mouse, in vivo) was “failed to heal”, the “ulceration at the injection sites” value ([4]; mouse, in vivo, sc) was “no ulceration occurred at the injection sites” and the “Adipose tissue weight” value ([5]; 1 %, 200 µL s.c. left inguinal, once every 14 days, day 42, n = 9) was 0.2007 ± 0.0365 g. For the same substance, the “Adipocyte density (n/mm^2)” value ([5]; 1 %, 200 µL s.c.) was 676.94±51.326 n/mm^2, the “Adipocyte density (n/mm^2)” value ([5]; 1 %, 200 µL s.c., listed as surfactin HXRZ) was 676.94±51.326 n/mm^2 and the “Fat index (%)” value ([5]; 1 %, 200 µL s.c., day 42, treated-side inguinal adipose weight/body weight × 100%) was 0.50±0.10 %. The Ulceration ([5]; mouse, in vivo) was 0 and the “ulceration at the administration sites over the administration cycle” value ([5]; mouse, in vivo) was “no ulceration occurred at the administration sites”.
